Laboratory results published in the NIST ThermoML archive (doi:10.1021/je101213p).
Several values for one entry are separate records, joined by “and”; a condition that tells them apart may be missing. Equal values may be shown once. ± gives the expanded uncertainty stated by the source.

Legend:
[1] = molar heat capacity at constant pressure; details: 101.33 kPa, Liquid, Large sample (1 g) DSC
[2] = Molar enthalpy of transition or fusion; details: DSC
[3] = DTA

CCCCCC[n+]1ccn(C)c1.O=S(=O)([N-]S(=O)(=O)C(F)(F)F)C(F)(F)F
Details | Molar enthalpy of transition or fusion [kcal/mol] | Normal melting temperature [°C] | molar heat capacity at constant pressure
[1], 302.86 K | – | – | 655.92 ± 22 J/K/mol
[1], 312.83 K | – | – | 632.65 ± 21 J/K/mol and 660.84 ± 22 J/K/mol
[1], 322.79 K | – | – | 666.66 ± 22 J/K/mol
[1], 322.81 K | – | – | 640.7 ± 21 J/K/mol
[1], 332.76 K | – | – | 668 ± 22 J/K/mol
[1], 332.78 K | – | – | 648.76 ± 21 J/K/mol
[1], 342.73 K | – | – | 671.58 ± 22 J/K/mol
[1], 342.76 K | – | – | 657.26 ± 22 J/K/mol
[1], 352.7 K | – | – | 676.95 ± 22 J/K/mol
[1], 352.72 K | – | – | 666.66 ± 22 J/K/mol
[1], 362.67 K | – | – | 683.66 ± 23 J/K/mol
[1], 362.68 K | – | – | 679.18 ± 22 J/K/mol
[1], 372.64 K | – | – | 690.82 ± 23 J/K/mol
[2], Crystal | 6.62 ± 0.43 | – | –
[3], Crystal | – | -1.70 ± 0.61 | –

CCCCCCCCn1cc[n+](C)c1.O=S(=O)([N-]S(=O)(=O)C(F)(F)F)C(F)(F)F
Details | Molar enthalpy of transition or fusion [kcal/mol] | Normal melting temperature [°C] | molar heat capacity at constant pressure [J/K/mol]
[1], 281.99 K | – | – | 693.71 ± 23
[1], 291.95 K | – | – | 695.62 ± 23
[1], 302.86 K | – | – | 690.39 ± 23
[1], 302.88 K | – | – | 692.29 ± 23
[1], 312.83 K | – | – | 705.13 ± 23
[1], 312.86 K | – | – | 705.6 ± 23
[1], 322.79 K | – | – | 714.16 ± 24
[1], 322.84 K | – | – | 719.87 ± 24
[1], 332.76 K | – | – | 719.87 ± 24
[1], 332.81 K | – | – | 732.7 ± 24
[1], 342.72 K | – | – | 725.57 ± 24
[1], 342.78 K | – | – | 748.39 ± 25
[1], 352.68 K | – | – | 730.33 ± 24
[1], 352.74 K | – | – | 757.9 ± 25
[1], 362.65 K | – | – | 736.98 ± 24
[1], 362.71 K | – | – | 767.89 ± 26
[1], 372.62 K | – | – | 742.21 ± 25
[1], 372.66 K | – | – | 779.78 ± 26
[2], Metastable crystal | 6.56 ± 0.43 | – | –
[3], Metastable crystal | – | -23.34 ± 0.61 | –
